Laboratory results: publication PMC7594054, “Design, Synthesis and In Vitro Experimental Validation of Novel TRPV4 Antagonists Inspired by Labdane Diterpenes” (Marine Drugs, 2020)
Entries after “also recorded” stand apart in the source; their conditions may differ. Read-outs that look alike come from different tables or passages of the source.

What was measured:
[1] = molecular target: T1, hTRPV1 (Homo sapiens, UniProt Q8NER1); assay: TRPV1 calcium influx assay (Fluo-4) in HEK-293 cells overexpressing human recombinant TRPV1; assay type: cell-based; settings: for Efficacy %: as percent of the effect of ionomycin (4 µM), HEK-293 cells overexpressing hTRPV1, means ± SEM, N >= 3; for IC50: read-out: IC50 inh TRPV1; for EC50: activation, NA = not active (efficacy lower than 10%), read-out: Potency EC50
T1 construct: expressed in transfected cells; host or cells: HEK-293

[2] = molecular target: T2, rTRPV4 (Rattus norvegicus, UniProt Q9ERZ8); assay: TRPV4 calcium influx assay (Fluo-4) in HEK-293 cells overexpressing rat recombinant TRPV4; assay type: cell-based; settings: for IC50: against the effect of GSK1016790A (10 nM) after a 5-min pre-incubation, read-out: IC50 inh. TRPV4; for Efficacy %: as percent of the effect of ionomycin (4 µM), HEK-293 cells overexpressing rTRPV4, means ± SEM, n >= 3
T2 construct: expressed in transfected cells; host or cells: HEK-293
From the text: The interaction properties of all homodrimane-derived compounds 1–16, 18–19, and 22–25 with either TRPV type-4 or type-1 were studied in human embryonic kidney (HEK)-293 cells overexpressing either the rat recombinant type-4 (rTRPV4), which shares with the human orthologue ~95% of sequence identity, and the human recombinant type-1 (hTRPV1) channel, evaluating the changes in intracellular calcium levels. […] Cell fluorescence before and after the addition of various concentrations of test compounds was measured normalizing the effects against the response to ionomycin (4 μM). […] Dose-response curve fitting (sigmoidal dose-response variable slope) and parameter estimation were performed with Graph-Pad Prism8® (GraphPad Software Inc., San Diego, CA, USA). All determinations were performed at least in triplicate.

[3] = activation, half-maximal increase in [Ca2+]i, NA = not active (efficacy lower than 10%), read-out: Potency EC50

T2 sequence (Q9ERZ8 whole entry): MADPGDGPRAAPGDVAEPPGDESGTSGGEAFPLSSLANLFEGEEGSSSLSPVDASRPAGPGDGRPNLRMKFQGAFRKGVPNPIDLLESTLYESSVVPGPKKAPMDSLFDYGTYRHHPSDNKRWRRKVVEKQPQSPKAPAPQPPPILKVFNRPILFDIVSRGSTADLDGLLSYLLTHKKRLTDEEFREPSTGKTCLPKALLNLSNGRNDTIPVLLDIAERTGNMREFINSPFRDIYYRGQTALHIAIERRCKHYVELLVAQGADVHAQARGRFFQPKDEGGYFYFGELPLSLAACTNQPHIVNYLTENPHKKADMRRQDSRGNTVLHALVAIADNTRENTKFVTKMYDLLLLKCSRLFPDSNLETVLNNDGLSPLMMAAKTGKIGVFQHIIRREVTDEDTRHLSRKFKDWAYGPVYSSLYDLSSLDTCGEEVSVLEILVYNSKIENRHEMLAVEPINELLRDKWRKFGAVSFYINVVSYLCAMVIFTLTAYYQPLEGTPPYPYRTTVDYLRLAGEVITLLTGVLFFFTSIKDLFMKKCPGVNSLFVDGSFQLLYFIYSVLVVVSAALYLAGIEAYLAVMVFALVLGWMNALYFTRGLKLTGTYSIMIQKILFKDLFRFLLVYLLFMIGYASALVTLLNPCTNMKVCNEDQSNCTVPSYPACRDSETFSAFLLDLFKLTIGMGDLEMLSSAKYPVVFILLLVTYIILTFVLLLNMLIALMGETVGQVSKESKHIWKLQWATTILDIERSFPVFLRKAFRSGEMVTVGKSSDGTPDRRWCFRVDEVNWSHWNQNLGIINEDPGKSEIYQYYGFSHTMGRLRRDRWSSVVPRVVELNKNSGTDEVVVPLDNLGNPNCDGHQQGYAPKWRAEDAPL
T1 sequence (Q8NER1 whole entry): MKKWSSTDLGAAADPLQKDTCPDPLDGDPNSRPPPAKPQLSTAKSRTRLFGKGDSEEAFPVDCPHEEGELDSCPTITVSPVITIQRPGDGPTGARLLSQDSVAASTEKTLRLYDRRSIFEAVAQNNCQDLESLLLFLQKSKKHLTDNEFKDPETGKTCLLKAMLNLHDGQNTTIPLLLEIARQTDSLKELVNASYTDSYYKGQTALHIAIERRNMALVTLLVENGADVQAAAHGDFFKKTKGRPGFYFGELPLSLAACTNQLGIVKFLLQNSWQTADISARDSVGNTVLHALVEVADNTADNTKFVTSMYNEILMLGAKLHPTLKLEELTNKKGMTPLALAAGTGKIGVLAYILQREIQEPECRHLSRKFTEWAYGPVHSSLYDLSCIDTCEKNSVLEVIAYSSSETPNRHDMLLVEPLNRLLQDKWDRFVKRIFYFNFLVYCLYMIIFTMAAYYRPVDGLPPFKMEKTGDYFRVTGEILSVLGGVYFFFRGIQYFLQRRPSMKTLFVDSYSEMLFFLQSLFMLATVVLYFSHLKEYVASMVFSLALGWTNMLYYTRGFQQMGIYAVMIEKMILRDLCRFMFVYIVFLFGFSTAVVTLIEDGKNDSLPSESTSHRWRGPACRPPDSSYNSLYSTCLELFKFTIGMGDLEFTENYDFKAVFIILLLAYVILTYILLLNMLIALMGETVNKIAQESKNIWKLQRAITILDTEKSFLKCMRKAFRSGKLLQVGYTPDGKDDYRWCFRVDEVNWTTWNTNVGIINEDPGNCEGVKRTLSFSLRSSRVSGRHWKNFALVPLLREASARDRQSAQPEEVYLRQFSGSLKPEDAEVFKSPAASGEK

Efficacy % [1] [%] | IC50 [1] [µM] | IC50 [2] [µM] | Efficacy % [2] [%] | EC50 [1] [µM] | activity on rTRPV4 in words [2] | EC50 [2, 3] [µM] | melting point [°C] | activity on hTRPV1 in words [1] | SMILES | EC50 [2] [µM]
– | > 100 | > 100 | <10 | – | completely devoid of activity | – | – | – | CC1(C)CCC[C@]2(C)[C@@H](CC(=O)NCc3ccc(-c4ccccc4)cc3)[C@](C)(O)CC[C@@H]12 [Compound 15, N-((1,1′-biphenyl)-4-ylmethyl)-2-((1R,2R,4aS,8aS)-2-hydroxy-2,5,5,8a-tetramethyldecahydronaphthalen-1-yl)acetamide] | –
– | > 100 | > 100 | <10 | – | complete loss of activity | – | – | – | CC1(C)CCC[C@]2(C)[C@@H](CC(=O)NCCCn3ccnc3)[C@](C)(O)CC[C@@H]12 [Compound 16, N-(3-(1H-imidazol-1-yl)propyl)-2-((1R,2R,4aS,8aS)-2-hydroxy-2,5,5,8a-tetramethyldecahydronaphthalen-1-yl)acetamide] | –
17.5 ± 2.7 | > 100 | > 100 | <10 | – | completely devoid of activity | – | – | – | CC1(C)CCC[C@]2(C)[C@@H](CC(=O)OCc3ccc(Cl)c(Cl)c3)[C@](C)(O)CC[C@@H]12 [Compound 19, 3,4-dichlorobenzyl 2-((1R,2R,4aS,8aS)-2-hydroxy-2,5,5,8a-tetramethyldecahydronaphthalen-1-yl)acetate] | –
– | > 100 | > 100 | <10 | – | inactive | – | – | inactive | COC(=O)CC1C(C)(O)CCC2C(C)(C)CCCC21C (stereo not drawn) [Compound 20] | –
– | > 100 | – | <10 | – | – | – | 155 to 156 | – | CC1(C)CCC[C@]2(C)[C@@H](CCOC(=O)c3ccc4c(c3)OCO4)[C@](C)(O)CC[C@@H]12 [Compound 22, 2-((1R,2R,4aS,8aS)-2-Hydroxy-2,5,5,8a-tetramethyldecahydronaphthalen-1-yl)ethyl Benzo[d][1,3]dioxole-5-carboxylate] | –
– | > 100 | > 100 | <10 | – | – | – | – | – | CC1(C)CCC[C@]2(C)[C@@H](CCOC(=O)CCCc3cccs3)[C@](C)(O)CC[C@@H]12 [Compound 24, 2-((1R,2R,4aS,8aS)-2-hydroxy-2,5,5,8a-tetramethyldecahydronaphthalen-1-yl)ethyl 4-(thiophen-2-yl)butanoate] | –
– | > 100 | > 100 | <10 | – | inactive | – | – | inactive | CC1(C)CCC[C@]2(C)[C@@H](CCOCc3cccc(Cl)c3)[C@](C)(O)CC[C@@H]12 [Compound 25, (1R,2R,4aS,8aS)-1-(2-((3-Chlorobenzyl)oxy)ethyl)-2,5,5,8a-tetramethyldecahydronaphthalen-2-ol] | –

Second part, the compound before the results:

SMILES | Efficacy % [1] [%] | IC50 [1] [µM] | IC50 [2] [µM] | Efficacy % [2] [%] | EC50 [1] [µM] | activity on rTRPV4 in words [2] | EC50 [2, 3] [µM] | melting point [°C] | activity on hTRPV1 in words [1] | EC50 [2] [µM]
CC1(C)CCC[C@]2(C)[C@@H](CC(=O)Nc3ccccc3)[C@](C)(O)CC[C@@H]12 [Compound 1, 2-((1R,2R,4aS,8aS)-2-Hydroxy-2,5,5,8a-tetramethyldecahydronaphthalen-1-yl)-N-phenylacetamide] | 33.6 ± 0.8 | > 100 | > 100 | <10 | – | – | – | – | – | –
CC1(C)CCC[C@]2(C)[C@@H](CC(=O)Nc3cc(F)ccc3F)[C@](C)(O)CC[C@@H]12 [Compound 2, N-(2,5-difluorophenyl)-2-((1R,2R,4aS,8aS)-2-hydroxy-2,5,5,8a-tetramethyldecahydronaphthalen-1-yl)acetamide] | – | > 100 | > 100 | <10 | – | – | – | – | – | –
CC1(C)CCC[C@]2(C)[C@@H](CC(=O)Nc3ccccc3-n3cccc3)[C@](C)(O)CC[C@@H]12 [Compound 3, N-(2-(1H-pyrrol-1-yl)phenyl)-2-((1R,2R,4aS,8aS)-2-hydroxy-2,5,5,8a-tetramethyldecahydronaphthalen-1-yl)acetamide] | 32.0 ± 1.2 | > 100 | 6 ± 0.1 | 14.6 ± 1.5 | 4.7 ± 0.4 | good rTRPV4 agonist | 1.1 ± 1 | – | – | –
CC1(C)CCC[C@]2(C)[C@@H](CC(=O)NCc3ccccc3)[C@](C)(O)CC[C@@H]12 [Compound 4, N-benzyl-2-((1R,2R,4aS,8aS)-2-hydroxy-2,5,5,8a-tetramethyldecahydronaphthalen-1-yl)acetamide] | 36.8 ± 0.2 | – | 32 ± 0.8 | <10 | – | – | – | – | – | –
CC1(C)CCC[C@]2(C)[C@@H](CC(=O)NCc3ccc(Cl)cc3)[C@](C)(O)CC[C@@H]12 [Compound 5, N-(4-chlorobenzyl)-2-((1R,2R,4aS,8aS)-2-hydroxy-2,5,5,8a-tetramethyldecahydronaphthalen-1-yl)acetamide] | – | > 100 | 7.7 ± 0.3 | <10 | – | – | – | – | – | –
CC1(C)CCC[C@]2(C)[C@@H](CC(=O)NCc3ccc(F)cc3)[C@](C)(O)CC[C@@H]12 [Compound 7, N-(4-fluorobenzyl)-2-((1R,2R,4aS,8aS)-2-hydroxy-2,5,5,8a-tetramethyldecahydronaphthalen-1-yl)acetamide] | 24.5± 0.2 | > 50 | 16.9 ± 0.8 | 15.8 ± 0.8 | 9.9 ± 0.1 | – | 13.4 ± 2.6 | 135 to 136 | – | –
COc1ccc(CNC(=O)C[C@@H]2[C@@]3(C)CCCC(C)(C)[C@@H]3CC[C@@]2(C)O)cc1 [Compound 8, 2-((1R,2R,4aS,8aS)-2-hydroxy-2,5,5,8a-tetramethyldecahydronaphthalen-1-yl)-N-(4-methoxybenzyl)acetamide] | 19.7 ± 1.1 | > 100 | 29.7 ± 0.7 | <10 | – | – | – | – | – | –
COc1cccc(CNC(=O)C[C@@H]2[C@@]3(C)CCCC(C)(C)[C@@H]3CC[C@@]2(C)O)c1 [Compound 9, 2-((1R,2R,4aS,8aS)-2-hydroxy-2,5,5,8a-tetramethyldecahydronaphthalen-1-yl)-N-(3 methoxybenzyl)acetamide] | – | > 100 | 18.1 ± 0.2 | <10 | – | – | – | – | – | –
CC1(C)CCC[C@]2(C)[C@@H](CC(=O)NCCc3ccccc3)[C@](C)(O)CC[C@@H]12 [Compound 10, 2-((1R,2R,4aS,8aS)-2-hydroxy-2,5,5,8a-tetramethyldecahydronaphthalen-1-yl)-N-phenethylacetamide] | – | – | 15.6 ± 0.3 | <10 | – | – | – | – | – | –
CC1(C)CCC[C@]2(C)[C@@H](CC(=O)NCCc3ccc(Cl)cc3)[C@](C)(O)CC[C@@H]12 [Compound 11, N-(4-chlorophenethyl)-2-((1R,2R,4aS,8aS)-2-hydroxy-2,5,5,8a-tetramethyldecahydronaphthalen-1-yl)acetamide] | – | > 100 | 7 ± 0.1 | <10 | – | – | – | – | – | –
CC1(C)CCC[C@]2(C)[C@@H](CC(=O)NCCc3ccc(F)cc3)[C@](C)(O)CC[C@@H]12 [Compound 12, N-(4-fluorophenethyl)-2-((1R,2R,4aS,8aS)-2-hydroxy-2,5,5,8a-tetramethyldecahydronaphthalen-1-yl)acetamide] | – | > 100 | 11.4 ± 0.1 | <10 | – | – | – | – | – | –
CC1(C)CCC[C@]2(C)[C@@H](CC(=O)NCCc3cccc(F)c3)[C@](C)(O)CC[C@@H]12 [Compound 13, N-(3-fluorophenethyl)-2-((1R,2R,4aS,8aS)-2-hydroxy-2,5,5,8a-tetramethyldecahydronaphthalen-1-yl)acetamide] | 20.8 ± 1.6 | > 50 | 11.9 ± 0.4 | <10 | – | – | – | – | – | –
CC1(C)CCC[C@]2(C)[C@@H](CC(=O)NCc3ccco3)[C@](C)(O)CC[C@@H]12 [Compound 14, N-(furan-2-ylmethyl)-2-((1R,2R,4aS,8aS)-2-hydroxy-2,5,5,8a-tetramethyldecahydronaphthalen-1-yl)acetamide] | 25.2 ± 2.0 | > 100 | 53.5 ± 1.8 | <10 | – | very weak antagonist properties | – | – | – | –
CC1(C)CCCC2(C)C1CCC(C)(O)C2CCO (stereo not drawn) [Compound 21] | – | > 100 | > 100 | <10 | – | unable to modulate either channel; also recorded: inactive | – | – | unable to modulate either channel | –
CC(C)C[C@H](NC(=O)c1cc2ccccc2s1)C(=O)N1CCN(C(=O)[C@H](CO)NS(=O)(=O)c2ccc(Cl)cc2Cl)CC1 [GSK1016790A, N-((1S)-1-{[4-((2S)-2-{[(2,4-dichlorophenyl)sulfonyl]amino} -3-hydroxypropanoyl)-1-piperazinyl]carbonyl}-3-methylbutyl)-1-benzothiophene-2-carboxamide, reference compound] | – | – | – | – | – | – | – | – | – | 0.0035
CC1(C)CCC[C@]2(C)[C@H]3CC(=O)O[C@]3(C)CC[C@@H]12 [Scd, (+)-Sclareolide, reference compound] | 12.6 ± 0.5 | > 100 | > 100 | 11.3 ± 0.7 | – | unable to modulate either channel; also recorded: inactive | > 10 | – | unable to modulate either channel | –
